Laboratory results taken from patent US20110112192A1, “VERFAHREN ZUR GERUCHSEXTINKTION” (priority 2007, published 2011).

Assays:
[1] = Administration of acetylcysteine before the consumption of a garlic containing meal; format: in vivo, human; details: administration about 10 minutes before the meal; 50 mg female, 75 mg male test persons; 15 tests per person
Description: 2. Administration of an acetylcysteine before the consumption of a garlic containing meal Battery of tests and dosage applied the same as under 1. The administration of acetylcysteine was done about 10 minutes before the meal.

[2] = Administration of acetylcysteine after the consumption of a garlic containing meal; format: in vivo, human; details: ACC-fizzing tablets (Hexal) given after the meal; 50 mg female test persons (32 to 74 kg), 75 mg male test persons (52 to 98 kg); 15 tests per person
Description: 1. Administration of acetylcysteine after the consumption of a garlic containing meal Battery of tests with 15 tests per person. Dosing: 50 mg with female test persons (32 to 74 kg body weight) i. 75 mg with male test persons (52 to 98 kg body weight) In these tests, the ACC-fizzing tablets of the Hexal company were applied. The positive test results were observed each within a time window of 10 to 20 minutes after administration of the acetylcysteine.

CC(=O)N[C@@H](CS)C(=O)O [acetylcysteine]
odor formation after garlic containing meal [1]: odor formation was likewise prevented
odor after garlic containing meal [2]: no odor in all tests
